The results in this text go back to ChEMBL document CHEMBL1201862, “PubChem BioAssay data set” (2004).

The structures appear in SMILES notation.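 Following 48 hours of exposure in 96-well plates, responses at five concentrations were used to interpolate endpoints linearly. Abbreviation: GI50, concentration required for 50% inhibition of growth.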 Activity calls are given as the source filed them. Rule as the data show it: active = GI50 up to about 1.1 µM and inactive = higher.

Assay in all cases: NCI anticancer screen, dose series, 48 h
In test [1] the test system is OVCAR-4.
Test [2] relates to SNB-19.
Test [3] relates to HT-29.
Test [4] relates to UO-31.
In test [5] the test system is MOLT-4.
Test [6] concerns A498.
In test [7] the test system is M14.
Test [8] relates to HCC 2998.
Test [9] deals with LOX IMVI.
Test [10] has as its system RXF 393.
Test [11] has as its system NCI-H226.
Test [12] deals with HCT-116.
The subject of test [13] is NCI/ADR-RES.
Test [14] deals with MDA-N.
Test [15] has as its system SK-MEL-5.
Test [16] has as its system IGROV-1.
Test [17] concerns CCRF-CEM.
Test [18] relates to OVCAR-3.
In test [19] the test system is ACHN.
For test [20], the system named is SK-MEL-2.

`CC(=O)O[C@H]1CC[C@H]2[C@@H]3CCC4C(C)=NNC(=O)C4[C@H]3CC[C@]12C` (stereo not given in full): the GI50 in test [1] is > 100 µM (inactive); in test [2], 33.5 µM (inactive); in [3] it was > 100 µM (inactive); in test [4], > 100 µM (inactive); in test [5], > 100 µM (inactive); in test [6], 37.2 µM (inactive). Further, the GI50 in test [7] was > 100 µM (inactive); in test [8] it was > 100 µM (inactive); in test [9] it was > 38.6 µM (inactive); in [10] it was 56.6 µM (inactive); in [11] it was 39.5 µM (inactive); in test [12], > 73.5 µM (inactive). Moreover, the GI50 in test [13] was 45.4 µM (inactive); in test [14] it was > 100 µM (inactive); in [15], > 100 µM (inactive); in test [16] it was 27 µM (inactive); in test [17], > 100 µM (inactive); in test [18], > 100 µM (inactive). Further, the figures for the GI50 in test [19] and in test [20] were 57.5 µM (inactive) and > 75.2 µM (inactive), respectively.

Turning to `ClCCCCCc1c2nc(c(CCCCCCl)c3ccc([nH]3)c(CCCCCCl)c3nc(c(CCCCCCl)c4ccc1[nH]4)C=C3)C=C2`, the GI50 in test [1], in [2], in [3], in [4], in [5] and in test [6] was > 100 µM (inactive) in each case. Besides, the GI50 in test [7], in test [8], in [9], in [10], in [11] and in test [12] was > 100 µM (inactive) in each case. Besides, the GI50 in [13], in test [14], in test [15], in [16], in [17] and in test [18] was > 100 µM (inactive) each time. Moreover, the GI50 in [19] and in test [20] was > 100 µM (inactive) in each case.

Consider `Cc1cc(CS(=O)(=O)/C=C/c2ccccc2[N+](=O)[O-])c(CS(=O)(=O)/C=C/c2ccccc2[N+](=O)[O-])cc1C`, for which the GI50 in [1] was 7.98 µM (inactive); in test [2] it was 28.1 µM (inactive); in [3] it was > 61.7 µM (inactive); in [4], > 82 µM (inactive); in test [5] it was 70.1 µM (inactive); in [6] it was 26.5 µM (inactive). Moreover, the GI50 in test [7] is > 69.8 µM (inactive); in [8] it was > 85.3 µM (inactive); in test [9] it was 24.3 µM (inactive); in [10], 10.3 µM (inactive); in test [11], 19 µM (inactive); in [12], 37 µM (inactive). The GI50 in test [13] was 53.5 µM (inactive); in [14] it was > 27.9 µM (inactive); in test [15], 37.2 µM (inactive); in test [16], 30.8 µM (inactive); in [17], 21.5 µM (inactive); in test [18], 49.1 µM (inactive). The GI50 is 34.4 µM (inactive) in test [19] and 15.4 µM (inactive) in [20].

Turning to `O=C1NC2c3c(I)sc(I)c3/C(=N\O)C2O1` (stereo not given), the GI50 in [1] is 26.1 µM (inactive); in test [2], 21.7 µM (inactive); in test [3], 17.9 µM (inactive); in [4], 15.7 µM (inactive); in test [5] it was 28.2 µM (inactive); in [6], 33.6 µM (inactive). For the same compound, the GI50 in [7] was 36.8 µM (inactive); in [8], 35.1 µM (inactive); in test [9] it was 29.4 µM (inactive); in test [10], 12.7 µM (inactive); in test [11] it was 31 µM (inactive); in [12], 25.1 µM (inactive). In addition, the GI50 in test [13] is 20.4 µM (inactive); in test [14], 33.6 µM (inactive); in test [16], 19.8 µM (inactive); in test [17], 24.3 µM (inactive); in test [18], 18.2 µM (inactive); in test [19], 17 µM (inactive). In test [20], the GI50 was 63.7 µM (inactive).

With `N=C(N)NC(=N)Nc1ccccc1.Sc1nc2ccccc2s1`, the GI50 in [1], in [2], in [3], in test [4], in [6] and in test [7] was > 100 µM (inactive) in each case. For the same compound, the GI50 in [8], in test [9], in test [10], in [11], in [12] and in [13] was > 100 µM (inactive) each time. The GI50 was > 100 µM (inactive) in test [14]; > 100 µM (inactive) in test [15]; 70.5 µM (inactive) in test [16]; > 100 µM (inactive) in test [17]; 0.532 µM (active) in test [18]; > 100 µM (inactive) in test [19]. In test [20], the GI50 was > 100 µM (inactive).

`O=C1Nc2ccc(S(=O)(=O)NCCO)cc2/C1=C1/Nc2ccccc2C1=O`: the GI50 in [1] was 3.06 µM (inactive); in test [2], 8.81 µM (inactive); in [3] it was > 100 µM (inactive); in [4] it was 52.5 µM (inactive); in test [5], 7.06 µM (inactive); in test [6], 2.53 µM (inactive). Further, the GI50 in [7] is > 100 µM (inactive); in test [8] it was 53 µM (inactive); in test [9], 42 µM (inactive); in [10], 4.36 µM (inactive); in test [11] it was > 100 µM (inactive); in test [12] it was 3.13 µM (inactive). Besides, the GI50 in test [13] is > 100 µM (inactive); in test [14], > 100 µM (inactive); in [15], 12.7 µM (inactive); in [16] it was 1.04 µM (active); in test [17], 3.23 µM (inactive); in [18] it was 4.06 µM (inactive). Moreover, the GI50 in test [19] is 6.97 µM (inactive); in test [20] it was 4.16 µM (inactive).

On to `O=C1C(Cl)=C(N2CCOCC2)C(=O)c2c(O)ccc(O)c21`, for which the GI50 is 0.256 µM (active) in [1]; 1.78 µM (inactive) in test [2]; 0.233 µM (active) in test [3]; 0.351 µM (active) in test [4]; 1.35 µM (inactive) in test [5]; 1.63 µM (inactive) in test [6]. Further, the GI50 in test [7] was 0.182 µM (active); in [8], 1.67 µM (inactive); in test [9], 0.186 µM (active); in test [10], 0.222 µM (active); in test [11], 1.83 µM (inactive); in test [12], 0.213 µM (active). Further, the GI50 in test [13] is 0.366 µM (active); in [14], 0.176 µM (active); in test [15] it was 0.316 µM (active); in test [16], 0.612 µM (active); in test [17], 0.473 µM (active); in [18] it was 0.385 µM (active). The GI50 in [19] was 0.263 µM (active); in test [20], 0.288 µM (active).

On to `c1ccc2c(c1)SCCC2NC1=NCCO1` (stereo not given), for which the GI50 in test [1] is > 100 µM (inactive); in test [2] it was > 100 µM (inactive); in [3] it was 89.5 µM (inactive); in [4] it was > 100 µM (inactive); in [5], > 100 µM (inactive); in test [6], > 100 µM (inactive). The GI50 in test [7], in [8], in test [9], in [10], in test [11] and in test [12] was > 100 µM (inactive) each time. The GI50 in test [13], in test [14], in test [15], in [16], in [17] and in test [18] was > 100 µM (inactive) in each case. In addition, the GI50 in test [19] and in test [20] was > 100 µM (inactive) throughout.

Consider `O=[N+]([O-])c1cc2c(c([N+](=O)[O-])c1)NCc1ccccc1O2`, for which the GI50 in test [1] is 70.5 µM (inactive); in [3], > 100 µM (inactive); in test [4], > 100 µM (inactive); in test [5], 59.2 µM (inactive); in [6] it was > 100 µM (inactive); in test [8], > 100 µM (inactive). Moreover, the GI50 in [9] was > 100 µM (inactive); in [10] it was 16 µM (inactive); in [11], > 100 µM (inactive); in test [12], > 100 µM (inactive); in [13] it was > 100 µM (inactive); in test [14], > 100 µM (inactive). Moreover, the GI50 in test [15] is > 100 µM (inactive); in [16] it was > 100 µM (inactive); in test [17], 24.3 µM (inactive); in test [18], > 100 µM (inactive); in test [19] it was > 100 µM (inactive); in test [20] it was 76.6 µM (inactive).

`O=C(O)CCSC1=NCCN1`: the GI50 in [1], in [2], in test [3], in test [4], in test [6] and in test [7] was > 100 µM (inactive) each time. Besides, the GI50 in test [8], in test [9], in [10], in test [11], in test [12] and in [13] was > 100 µM (inactive) each time. Further, the GI50 in test [14] was > 100 µM (inactive); in [15] it was > 100 µM (inactive); in [16], > 100 µM (inactive); in [17], 98.6 µM (inactive); in test [18], > 100 µM (inactive); in test [19], > 100 µM (inactive). Further, the GI50 in test [20] is > 100 µM (inactive).
